Experimental data as given in paper PMC9133015 (Nature Communications, 2022).
Several values for one entry are separate records, joined by “and”; a condition that tells them apart may be missing. Equal values may be shown once. Read-outs that look alike come from different tables or passages of the source.

Molecular target: T1, DYRK2 (Homo sapiens, UniProt Q92630)
T1 construct: purchased Reaction Biology Corporation (assay service)
T1 sequence (Q92630 1-601): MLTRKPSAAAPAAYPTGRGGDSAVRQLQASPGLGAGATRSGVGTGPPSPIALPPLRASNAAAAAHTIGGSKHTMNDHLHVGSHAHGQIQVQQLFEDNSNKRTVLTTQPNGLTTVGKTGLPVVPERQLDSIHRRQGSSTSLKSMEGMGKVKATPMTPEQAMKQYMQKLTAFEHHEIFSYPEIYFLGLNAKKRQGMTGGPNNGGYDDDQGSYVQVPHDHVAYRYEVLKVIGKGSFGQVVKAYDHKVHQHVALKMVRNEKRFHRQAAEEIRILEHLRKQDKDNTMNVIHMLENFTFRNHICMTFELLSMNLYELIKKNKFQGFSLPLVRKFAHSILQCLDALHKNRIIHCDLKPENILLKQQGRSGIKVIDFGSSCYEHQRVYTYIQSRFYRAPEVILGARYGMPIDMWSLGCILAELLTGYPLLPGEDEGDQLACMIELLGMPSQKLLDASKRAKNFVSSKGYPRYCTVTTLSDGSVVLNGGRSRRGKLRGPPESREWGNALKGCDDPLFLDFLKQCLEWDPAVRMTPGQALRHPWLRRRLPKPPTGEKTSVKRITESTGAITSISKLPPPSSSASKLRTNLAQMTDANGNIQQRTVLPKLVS
Assay: DYRKs kinase activity assay (33P-ATP, DYRKtide substrate): DYRK2
Type: biochemical
Conditions: for % Inhibition / inhibition at 0.0137174 µM / inhibition at 0.0411523 µM / inhibition at 0.123457 µM / inhibition at 0.37037 µM / inhibition at 1.11111 µM / inhibition at 3.33333 µM / inhibition at 10 µM / inhibition at 0.000508053 µM / inhibition at 0.00152416 µM / inhibition at 0.00457247 µM: DYRK2 kinase, duplicate values; for inhibition at 0.0137174 µM / inhibition at 0.0411523 µM / inhibition at 0.123457 µM / inhibition at 0.37037 µM / inhibition at 1.11111 µM / inhibition at 3.33333 µM / inhibition at 10 µM / inhibition at 0.00152416 µM: read-out: % Inhibition; for DYRK2 inhibitory activity (in words): structural optimization of lead 12

[1] = Supplementary Table 1, read-out: IC50 (μM), DYRK2 kinase

SMILES	% Inhibition (Conc. 0.000508053 µM)	% Inhibition (Conc. 0.00152416 µM)	% Inhibition (Conc. 0.00457247 µM)	% Inhibition (Conc. 0.0137174 µM)	% Inhibition (Conc. 0.0411523 µM)	% Inhibition (Conc. 0.123457 µM)	% Inhibition (Conc. 0.37037 µM)	% Inhibition (Conc. 1.11111 µM)	% Inhibition (Conc. 3.33333 µM)	% Inhibition (Conc. 10 µM)	IC50 [1]	inhibition at 0.0137174 µM (Conc. 0.0137174 µM)	inhibition at 0.0411523 µM (Conc. 0.0411523 µM)	inhibition at 0.123457 µM (Conc. 0.123457 µM)	inhibition at 0.37037 µM (Conc. 0.37037 µM)	inhibition at 1.11111 µM (Conc. 1.11111 µM)	inhibition at 3.33333 µM (Conc. 3.33333 µM)	inhibition at 10 µM (Conc. 10 µM)	other results
O=C(c1cccc(Cn2cc(Br)c([N+](=O)[O-])n2)c1)N1CCN(C(=O)c2ccco2)CC1 [Compound 8]	-2.60% and -0.07%	-3.65% and -2.08%	-3.85% and -2.28%	-16.34% and -14.56%	-10.92% and -10.74%	-6.09% and -4.48%	-6.00% and -2.89%	-5.16% and -3.57%	2.31% and 3.77%	17.16% and 18.38%	> 10 µM	–	–	–	–	–	–	–	–
CC(C)Cc1nc(N2CCN(CC(=O)NCc3ccco3)CC2)c(C#N)c2c1COC(C)(C)C2 [Compound 14]	0.98% and 2.97%	13.91% and 15.64%	3.50% and 5.44%	7.06% and 8.93%	12.96% and 14.71%	25.38% and 26.88%	22.08% and 23.65%	26.44% and 27.92%	22.42% and 24.14%	27.65% and 29.11%	> 10 µM	–	–	–	–	–	–	–	–
COc1cc(-c2nnc(CSc3nc4c(OC)ccc(OC)c4[nH]3)o2)cc(OC)c1OC [Compound 15]	-1.53% and -4.09%	-4.76% and -6.22%	-1.13% and -0.37%	-10.53% and -12.16%	-9.17% and -11.37%	-2.00% and -9.98%	-8.29% and -9.76%	-3.66% and -9.01%	0.93% and -1.24%	16.42% and 14.23%	> 10 µM	–	–	–	–	–	–	–	–
Cl.Fc1cnc(Nc2ccc(CN3CCNCC3)cn2)nc1-c1ccc2ncsc2c1 [Compound 18]	–	–	–	12.10%	21.24%	36.98%	58.36%	75.32%	88.49%	94.11%	–	9.69%	19%	36.4%	56%	75.1%	88.2%	93.9%	inhibition at 0.000508053 µM (Conc. 0.000508053 µM): -3.69%; inhibition at 0.00152416 µM (Conc. 0.00152416 µM): -1.56%; inhibition at 0.00457247 µM (Conc. 0.00457247 µM): -2.27%
CCN1CCN(Cc2ccc(Nc3ncc(F)c(-c4cnc5ccnn5c4)n3)nc2)CC1 [Compound 19]	-1.87% and -5.39%	-4.33% and -7.82%	-8.64% and -11.90%	-12.62% and -14.01%	-8.54% and -12.22%	0.35% and 0.01%	1.52% and -0.10%	6.04%	1.80% and -0.24%	26.16%	–	–	–	–	–	8.33%	–	28%	DYRK2 inhibitory activity (in words): significantly decreased
Cl.Fc1cnc(Nc2ccc(N3CCNCC3)cn2)nc1-c1ccc2ncsc2c1 [Compound 21]	9.05%	8.33%	11.99%	16.84%	38.81%	56.81%	75.73%	88.57%	94.50%	95.74%	–	14%	36.7%	55.4%	74%	86.9%	95.3%	96.6%	inhibition at 0.000508053 µM (Conc. 0.000508053 µM): 8.81%; inhibition at 0.00152416 µM (Conc. 0.00152416 µM): 12.2%; inhibition at 0.00457247 µM (Conc. 0.00457247 µM): 13.8%; IC50 (read-out: DYRK2 IC50): 0.085 µM
CCN1CCN(C(=O)c2cnc(Nc3ncc(F)c(-c4ccc5ncsc5c4)n3)nc2)CC1 [Compound 22]	-2.89%	–	2.13%	–	–	26.76%	–	58.80%	75.98%	87.41%	–	3.91%	13.2%	25%	35.1%	58.5%	76.2%	87.2%	inhibition at 0.00152416 µM (Conc. 0.00152416 µM): 0.87%; inhibition at 0.00457247 µM (Conc. 0.00457247 µM): 2.31%; IC50 (read-out: DYRK2 IC50): 0.697 µM

Further lines, with some results ahead:

% Inhibition (Conc. 0.000508053 µM)	% Inhibition (Conc. 0.00152416 µM)	% Inhibition (Conc. 0.00457247 µM)	% Inhibition (Conc. 0.0137174 µM)	% Inhibition (Conc. 0.0411523 µM)	% Inhibition (Conc. 0.123457 µM)	% Inhibition (Conc. 0.37037 µM)	% Inhibition (Conc. 1.11111 µM)	% Inhibition (Conc. 3.33333 µM)	% Inhibition (Conc. 10 µM)	IC50 [1]	inhibition at 0.0137174 µM (Conc. 0.0137174 µM)	inhibition at 0.0411523 µM (Conc. 0.0411523 µM)	inhibition at 0.123457 µM (Conc. 0.123457 µM)	inhibition at 0.37037 µM (Conc. 0.37037 µM)	inhibition at 1.11111 µM (Conc. 1.11111 µM)	inhibition at 3.33333 µM (Conc. 3.33333 µM)	inhibition at 10 µM (Conc. 10 µM)	SMILES	other results
0.43% and 0.42%	1.70% and 1.66%	-1.24% and 1.19%	-4.62% and -2.11%	-1.40% and 1.03%	2.80% and 5.13%	6.00% and 8.26%	12.51% and 17.02%	18.00% and 19.98%	35.11% and 36.69%	> 10 µM	–	–	–	–	–	–	–	CC(C)COc1cccc(-c2cc(C(=O)Nc3sc(C(C)C)cc3C(N)=O)c3ccccc3n2)c1 [Compound 9]	–
-7.03% and -8.01%	-4.24% and -5.18%	-3.26% and -1.51%	-9.75% and -7.91%	-10.96% and -9.20%	0.34% and -3.30%	1.49% and 3.01%	15.95% and 17.31%	6.96% and 8.47%	22.24% and 25.76%	> 10 µM	–	–	–	–	–	–	–	Cn1c(=O)c2ncn(CC(=O)Nc3ccc4oc(-c5ccc(Cl)cc5Cl)nc4c3)c2n(C)c1=O [Compound 10]	–
-0.64% and -0.50%	-10.49% and -4.61%	-7.80% and -6.47%	2.76% and 2.77%	5.64% and 5.65%	2.54%	6.34% and 2.72%	14.05% and 16.10%	22.86% and 21.57%	38.49% and 39.53%	> 10 µM	–	–	–	–	–	–	–	O=C(COc1ccccc1-c1ccnn1-c1ccccc1)NN=Cc1coc2ccc(Cl)cc2c1=O [Compound 11]	–
1.82% and 2.74%	3.66% and 2.25%	7.30% and 8.12%	10.53% and 13.70%	5.97% and 6.86%	12.38% and 8.48%	14.58% and 13.01%	21.59% and 24.67%	29.05% and 32.01%	31.39% and 34.31%	> 10 µM	–	–	–	–	–	–	–	Cn1c(CN2CCN(C(=O)C3CCCCC3)CC2)nc2cc(NC(=O)Nc3ccccc3)ccc21 [Compound 13]	–
0.29% and 3.35%	-2.64% and 1.62%	1.68% and 3.59%	8.22%	26.26%	48.52%	63.31%	68.60%	73.48%	77.29%	–	6.53%	23.1%	47.2%	64.2%	68.6%	73.6%	76.9%	CCN1CCN(Cc2ccc(Nc3ncc(F)c(-c4ccc5ncsc5c4)n3)nc2)CC1 [Compound 16]	–
-1.98% and -2.03%	-0.44% and -0.45%	-0.11% and -0.23%	0.54%	9.25%	18.48%	37.11%	48.09%	58.92%	60.62%	–	0.53%	8.33%	18.1%	36.6%	47%	57.6%	59.4%	CC(C)(C)OC(=O)N1CCN(Cc2ccc(Nc3ncc(F)c(-c4ccc5ncsc5c4)n3)nc2)CC1 [Compound 17]	DYRK2 inhibitory activity (in words): significantly decreased activity
